The source of these data is US6175020A, “Spirodiamino acid scaffold for combinatorial synthesis” (Pharmacopeia, Inc., priority 1999, dated 2001).

For the assay, the target named is plasmepsin II (Plasmodium falciparum, UniProt P46925). Briefly: Biological Assay for Plasmepsin II (EDANS fluorescence). The format is biochemical. The settings on record: 4 nM plasmepsin II, 6 μM plasmepsin substrate, pH 5.0, 10 minutes at 25° C. On the procedure: Biological Assay for Plasmepsin II
The assay mix contained 50 mM sodium acetate (pH 5.0), 1 mg/ml BSA, 0.01% Tween 20, 12.5% glycerol, 18% DMSO and 12 μM plasmepsin substrate. Twenty five μL of the assay mix is added to each well of the 96-well microtiter plate containing dried down bead eluate or empty control wells. The plates are then sonicated and mixed. Then 25 μL of 8 nM plasmepsin II which is in 50 mM sodium acetate (pH 5.0), 1 mg/ml BSA, 0.01% Tween 20, and 12.5% glycerol, is added to the assay mix. The final concentrations are 4 nM plasmepsin II, 6 μM plasmepsin substrate, 9% DMSO, 50 mM sodium acetate (pH 5.0), 1 mg/ml BSA, 0.01% Tween 20, and 12.5% glycerol. The reaction is incubated for 10 minutes at 25° C. and then quenched by the addition of 25 μL of 1 M Tris (pH 8.5) and 50% DMSO to achieve a final concentration of 0.33 M Tris and 23% DMSO. The EDANS fluorescence was measured using the Tecan, SLT FLUOSTAR® fluorescence plate reader with an excitation filter of 350 nm and an emission filter 510 nm. The background was determined by 25 μL of 50 mM sodium acetate (pH 5.0), 1 mg/ml BSA, 0.01% Tween 20, and 12.5% glycerol without enzyme. Compound 23 was active at <1 millimolar concentration.

Sequence of plasmepsin II (P46925 125-453): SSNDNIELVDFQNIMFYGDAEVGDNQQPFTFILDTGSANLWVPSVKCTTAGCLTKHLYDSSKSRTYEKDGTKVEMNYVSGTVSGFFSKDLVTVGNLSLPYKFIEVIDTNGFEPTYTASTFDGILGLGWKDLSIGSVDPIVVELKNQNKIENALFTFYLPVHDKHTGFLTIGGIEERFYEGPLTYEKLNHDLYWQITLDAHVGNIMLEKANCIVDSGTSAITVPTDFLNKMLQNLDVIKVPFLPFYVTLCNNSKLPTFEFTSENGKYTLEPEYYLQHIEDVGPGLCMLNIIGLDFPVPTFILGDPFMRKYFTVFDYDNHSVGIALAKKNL

In general, IC50 refers to the point on the concentration scale where inhibition reaches its midpoint. On to `C=CCOC(=O)N1C(CC(=O)NCCc2cc(OC)cc(OC)c2)CCC12CCCC2CNC(=O)C[C@H](O)[C@H](CC(C)C)NC(=O)OC(C)(C)C` (relative stereo) [Compound 23], for which the “concentration at which compound was active” value is on record as less than 1 millimolar. Moreover, the half-inhibitory concentration (IC50) (read-out: IC50 (plasmepsin inhibitor)) is less than 1000 µM.
